Experimental data published in patent US5786137A, “Method for assaying components in an enzyme-protein substrate system” (Research Foundation of State University of New York, priority 1996, dated 1998).

Legend:
[1] = test system: plasmin (binding to and degradation of FITC-fibrinogen); experiment: Plasmin-mediated fibrinogenolysis assay: fluorescence dequenching of FITC-fibrinogen; assay type: biochemical
Experimental: To illustrate plasmin-mediated fibrinogenolysis into degradation products, 10 nM of plasmin was mixed for about 5 seconds in the reaction buffer containing 250 nM FITC-fibrinogen. […] The action of plasmin on FITC-fibrinogen produced an immediate large increase in fluorescence intensity (dequenching) in a plasmin-dependent manner (FIG. 4). The detection limit has been found under routine conditions to be at least 10 picomolar plasmin.
In that competition, some plasmin was able to bind fibrinogen as indicated by the initial rate of dequenching.

[2] = test system: fibrinogen (FITC-fibrinogen polymerized by thrombin); settings: 1 U/ml thrombin
Experimental: Fibrinogen was labeled with FITC using a 0.1M sodium bicarbonate buffer. After stopping the reaction with hydroxylamine (0.15M final concentration), the FITC-fibrinogen was dialyzed extensively before storage. The buffer for the polymerization reaction comprised either 0.1M NaCl, 0.05M Tris-HCl, 5 mM CaCl2 ("buffer 1") or 0.3M NaCl, 0.05M Tris-HC1, 5 mM CaCl2 ("buffer 2"). Cuvettes were incubated with 10 μM bovine serum albumin for 30 minutes to minimize adsorption of substrate to the cuvette walls.
In a series of reactions to produce fibrinogen polymerization into fibrin fibers, thrombin (final concentrations ranging from 0.1 U/ml, 0.25 U/ml, 0.5 U/ml and 1 U/ml) was mixed for about 5 seconds in either buffer 1 or buffer 2 containing a dilute FITC-fibrinogen (<40 nM) solution. Polymerization was monitored by exciting the reaction mixture with blue light (488 nm) and monitoring the fluorescence emission at 515 nm using a fluorimeter.

NCCCCCC(=O)O [ε-amino caproic acid]
progression of fibrinogenolysis (cessation of dequenching) ([1]; addition of 10 mM ε-amino caproic acid during fibrinogenolysis): immediately inhibited | inhibition of dequenching ([1]; excess ε-amino caproic acid added after plasmin-mediated fibrinogenolysis was initiated (FIG. 8)): dose-dependent inhibition | dequenching rate ([1]; plasmin preincubated with 10 mM ε-amino caproic acid before addition of fluorescent-labeled fibrinogen (FIG. 7)): greatly reduced

Gly-Pro-Arg-Pro [GPRP]
thrombin-induced quenching prevented ([2]; 100 μM GPRP added before polymerization): Over 80% | rate and extent of quenching associated with polymerization ([2]; 0.1, 10 and 100 μM GPRP): reduced in a dose-dependent manner
